Test results from US20050075354A1, “Complexes of E-2-Methoxy-N(3-{4-[3-methyl-4-(6-methyl-pyridin-3-yloxy)-phenylamino]-quinzazolin-6-YL}-allyl)-acetamide, their method of production, and use” (Pfizer Inc, priority 2002, published 2005).

Tests used:
Type in all cases: physicochemical
[1] = Hygroscopicity (weight gain at relative humidity); conditions: for Hygroscopicity (by weight): at 90% relative humidity; for Hygroscopicity (general statement): description, no conditions stated
[2] = Chemical stability (general statement); conditions: description, no conditions stated
[3] = Hygroscopicity in relative humidity chambers; conditions: after 16 hours
Experimental: The material was evaluated for hygroscopicity in relative humidity chambers.

## CCS(=O)(=O)O.CCS(=O)(=O)O.COCC(=O)NC/C=C/c1ccc2ncnc(Nc3ccc(Oc4ccc(C)nc4)c(C)c3)c2c1 [diesylate complex, E-2-Methoxy-N-(3-{4-[3-methyl-4-(6-methyl-pyridin-3-yloxy)-phenylamino]-quinazolin-6-yl}-allyl)-acetamide diesylate]
[1]
  Hygroscopicity (by weight): 45%

## COCC(=O)NC/C=C/c1ccc2ncnc(Nc3ccc(Oc4ccc(C)nc4)c(C)c3)c2c1.O=P(O)(O)O [monophosphate, E-2-Methoxy-N-(3{4-[3-methyl-4-(6-methyl-pyridin-3-yloxy)-phenylamino]-quinazolin-6-yl}-allyl)-acetamide Monophosphate]
[2]
  Chemical stability: chemically stable
[1]
  Hygroscopicity (general statement): non-hygroscopic

## CC1(C)C2CCC1(CS(=O)(=O)O)C(=O)C2.COCC(=O)NC/C=C/c1ccc2ncnc(Nc3ccc(Oc4ccc(C)nc4)c(C)c3)c2c1 [racemic camsylate, racemic E-2-Methoxy-N-(3-{4-[3-methyl-4-(6-methyl-pyridin-3-yloxy)-phenylamino]-quinazolin-6-yl}-allyl)-acetamide camsylate]
[1]; camsylate samples, conditions not stated
  Hygroscopicity (in words): hygroscopic to the point of deliquescence

## COCC(=O)NC/C=C/c1ccc2ncnc(Nc3ccc(Oc4ccc(C)nc4)c(C)c3)c2c1.O=[N+]([O-])O.O=[N+]([O-])O [dinitrate, E-2-Methoxy-N-(3-{4-[3-methyl-4-(6-methyl-pyridin-3-yloxy)-phenylamino]-quinazolin-6-yl}-allyl)-acetamide dinitrate]
[1]
  Hygroscopicity (by weight): ~7%

## COCC(=O)NC/C=C/c1ccc2ncnc(Nc3ccc(Oc4ccc(C)nc4)c(C)c3)c2c1.O=C(O)/C=C\C(=O)O.O=C(O)/C=C\C(=O)O [dimaleate, E-2-Methoxy-N-(3-{4-[3-methyl-4-(6-methyl-pyridin-3-yloxy)-phenylamino]-quinazolin-6-yl}-allyl)-acetamide Dimaleate]
[2]
  Chemical stability: chemically stable
[1]
  Hygroscopicity (by weight): 0.6%
  Hygroscopicity (general statement): non-hygroscopic

## COCC(=O)NC/C=C/c1ccc2ncnc(Nc3ccc(Oc4ccc(C)nc4)c(C)c3)c2c1.Cl [monohydrochloride, E-2-Methoxy-N-(3{4-[3-methyl-4-(6-methyl-pyridin-3-yloxy)-phenylamino]-quinazolin-6-yl}-allyl)-acetamide Monohydrochloride]
[2]
  Chemical stability: chemically stable
[1]
  Hygroscopicity (general statement): non-hygroscopic

## COCC(=O)NC/C=C/c1ccc2ncnc(Nc3ccc(Oc4ccc(C)nc4)c(C)c3)c2c1.O=S(=O)(O)c1ccccc1 [monobesylate, E-2-Methoxy-N-(3-{4-[3-methyl-4-(6-methyl-pyridin-3-yloxy)-phenylamino]-quinazolin-6-yl}-allyl)-acetamide monobesylate]
[3]; 75% RH chamber
  Water sorption: no significant water sorption
[3]; 94% RH chamber
  Weight increase: 6.7%
[3]; 100% relative humidity chamber
  Deliquescence: deliquescence was observed
